From patent US7927791B2, “Methods for identifying small molecules that modulate premature translation termination and nonsense mediated mRNA decay” (PTC Therapeutics, Inc., priority 2002, dated 2011)

Assays:
[1] = test system: RNA oligonucleotide corresponding to the 16S rRNA A site; test: Gel mobility shift assay of gentamicin binding to the 16S rRNA A site oligonucleotide
Method: FIG. 3. Gentamicin interacts with an oligonucleotide corresponding to the 16S rRNA. 20 μl reactions containing increasing concentrations of gentamicin (1 ng/ml, 10 ng/ml, 100 ng/ml, 1 μg/ml, 10 μg/ml, 50 μg/ml, 500 μg/ml) were added to 50 pmole end-labeled RNA oligonucleotide in TKM buffer, heated at 90° C. for 2 min and allowed to cool slowly to 24° C. 10 μl of 30% glycerol was added to each sample and the samples were applied to a 13.5% non-denaturing polyacrylamide gel. The gel was electrophoresed using 1200 volt-hours at 4° C. in TBE Buffer. Following electrophoresis, the gel was dried and the radioactivity was quantitated using a phosphorimager. The concentration of gentamicin added is indicated above each lane.
(§1) FIG. 4. The presence of 10 pg/ml gentamicin produces a gel mobility shift in the presence of the 16S rRNA oligonucleotide. 20 μl reactions containing increasing concentrations of gentamicin (100 ng/ml, 10 ng/ml, 1 ng/ml, 100 pg/ml, and 10 pg/ml) were added to 50 pmole end-labeled RNA oligonucleotide in TKM buffer were treated as described for FIG. 3.
FIG. 5. Gentamicin binding to the 16S rRNA oligonucleotide is weak in the absence of MgCl2.
(§2) Tris-potassium chloride (TK) buffer is composed of 50 mM Tris-HCl pH 7.4, 20 mM KCl, 0.1% Triton X-100, and 0.5 mM MgCl2. Tris-borate-EDTA (TBE) buffer is composed of 45 mM Tris-borate pH 8.0, and 1 mM EDTA. Tris-Potassium chloride-magnesium (TKM) buffer is composed of 50 mM Tris-HCl pH 7.4, 20 mM KCl, 0.1% Triton X-100 and 5 mM MgCl2.
RNA oligonucleotides were purchased from Dharmacon, Inc, Lafayette, Colo.). 500 pmole of either a 5′ fluorescein labeled oligonucleotide corresponding to the 16S rRNA A site (5′-[…]-3′ (SEQ ID NO:1); Moazed & Noller, 1987, Nature 327:389-394; Woodcock et al., 1991, EMBO J. 10:3099-3103; Yoshizawa et al., 1998, EMBO J. 17:6437-6448) or a 5′ fluorescein labeled oligonucleotide corresponding to the HIV-1 TAR element TAR RNA (5′-[…]-3′ (SEQ ID NO: 2); Huq et al., 1999, Nucleic Acids Research. 27:1084-1093; Hwang et al., 1999, Proc. Natl. Acad. Sci. USA 96:12997-13002) was 3′ labeled with 5′-^32P cytidine 3′,5′-bis(phosphate) (NEN) and T4 RNA ligase (NEBiolabs) in 10% DMSO as per manufacturer's instructions. The labeled oligonucleotides were purified using G-25 Sephadex columns (Boehringer Mannheim). For Tat-TAR gel retardation reactions the method of Huq et al. (Nucleic Acids Research, 1999, 27:1084-1093) was utilized with TK buffer containing 0.5 mM MgCl2 and a 12-mer Tat peptide (YGRKKRRQRRRP (SEQ ID NO: 3; single letter amino acid code). For 16S rRNA-gentamicin reactions, the method of Huq et al was used with TKM buffer. In 20 μl reaction volumes 50 pmoles of ^32P cytidine-labeled oligonucleotide and either gentamicin sulfate (Sigma) or the short Tat peptide (Tat47-58) in TK or TKM buffer were heated at 90° C. for 2 minutes and allow to cool to room temperature (approximately 24° C.) over 2 hours. Then 10 μl of 30% glycerol was added to each reaction tube and the entire sample was loaded onto a TBE non-denaturing polyacrylamide gel and electrophoresed at 1200-1600 volt-hours at 4° C. The gel was exposed to an intensifying screen and radioactivity was quantitated using a Typhoon phosporimager molecular Dynamics).

[2] = test system: HIV TAR RNA element oligonucleotide; test: Gel mobility shift specificity control: gentamicin with an unrelated oligonucleotide; format: binding; conditions: incubated with 10 mg/ml gentamicin, FIG. 4
Method: as §1
RNA oligonucleotides were purchased from Dharmacon, Inc, Lafayette, Colo.). 500 pmole of either a 5′ fluorescein labeled oligonucleotide corresponding to the 16S rRNA A site (5′-[…]-3′ (SEQ ID NO:1); Moazed & Noller, 1987, Nature 327:389-394; Woodcock et al., 1991, EMBO J. 10:3099-3103; Yoshizawa et al., 1998, EMBO J. 17:6437-6448) or a 5′ fluorescein labeled oligonucleotide corresponding to the HIV-1 TAR element TAR RNA (5′-[…]-3′ (SEQ ID NO: 2); Huq et al., 1999, Nucleic Acids Research. 27:1084-1093; Hwang et al., 1999, Proc. Natl. Acad. Sci. USA 96:12997-13002) was 3′ labeled with 5′-^32P cytidine 3′,5′-bis(phosphate) (NEN) and T4 RNA ligase (NEBiolabs) in 10% DMSO as per manufacturer's instructions. The labeled oligonucleotides were purified using G-25 Sephadex columns (Boehringer Mannheim). […] The gel was exposed to an intensifying screen and radioactivity was quantitated using a Typhoon phosporimager molecular Dynamics). […]

[3] = test system: HIV-1 TAR element TAR RNA oligonucleotide; test: Gel retardation analysis of Tat peptide binding to TAR RNA (non-denaturing polyacrylamide gel); conditions: 12% non-denaturing polyacrylamide gel, TK buffer, FIG. 2
Method: FIG. 2. Gel retardation analysis to detect peptide-RNA interactions. In 20 μl reactions containing 50 pmole end-labeled TAR RNA oligonucleotide, increasing concentrations of Tat47-58 peptide (0.1 uM, 0.2 uM, 0.4 uM, 0.8 uM, 1.6 uM) was added in TK buffer. The reaction mixture was then heated at 90° C for 2 min and allowed to cool slowly to 24° C. 10 μl of 30% glycerol was added to each sample and applied to a 12% non-denaturing polyacrylamide gel. The gel was electrophoresed using 1200 volt-hours at 4° C. in TBE Buffer. Following electrophoresis, the gel was dried and the radioactivity was quantitated with a phosphorimager. The concentration of peptide added is indicated above each lane.
as §2
RNA oligonucleotides were purchased from Dharmacon, Inc, Lafayette, Colo.). […] The gel was exposed to an intensifying screen and radioactivity was quantitated using a Typhoon phosporimager molecular Dynamics).

[4] = test system: HIV-1 TAR element TAR RNA oligonucleotide; test: Gel retardation assay by automated capillary electrophoresis (Tat peptide and TAR RNA); format: binding; conditions: increasing concentrations of Tat peptide, SCE9610 apparatus, FIG. 6
Method: FIG. 6. Gel retardation analysis to detect peptide-RNA interactions. In reactions containing increasing concentrations of Tat47-58 peptide (0.1 mM, 0.2 mM, 0.4 mM, 0.8 mM, 1.6 mM) 50 pmole TAR RNA oligonucleotide was added in TK buffer. The reaction mixture was then heated at 90° C. for 2 min and allowed to cool slowly to 24° C. The reactions were loaded onto a SCE9610 automated capillary electrophoresis apparatus (SpectruMedix; State College, Pennsylvania). The peaks correspond to the amount of free TAR RNA (“TAR”) or the Tat-TAR complex (“Tat-TAR”). The concentration of peptide added is indicated below each lane.
Tris-potassium chloride (TK) buffer is composed of 50 mM Tris-HCl pH 7.4, 20 mM KCl, 0.1% Triton X-100, and 0.5 mM MgC2. Tris-borate-EDTA (IBE) buffer is composed of 45 mM Tris-borate pH 8.0, and 1 mM EDTA. Tris-Potassium chloride-magnesium (TKM) buffer is composed of 50 mM Tris-HCl pH 7.4, 20 mM KCl, 0.1% Triton X-100 and 5 mM MgCl2.
RNA oligonucleotides were purchased from Dharmacon, Inc, Lafayette, Colo.). 500 pmole of a 5′ fluorescein labeled oligonucleotide corresponding to the HIV-1 TAR element TAR RNA (5′-[…]-3′ (SEQ ID NO: 2); Huq et al., 1999, Nucleic Acids Research. 27:1084-1093; Hwang et al., 1999, Proc. Natl. Acad. Sci. USA 96:12997-13002) was used. […]

Row | Substance | lowest gentamicin concentration that produces the mobility shift ([1]; TKM buffer (5 mM MgCl2), 1 ng/ml to 500 μg/ml tested, FIG. 3) [ng/mL] | gel shift when gentamicin is added after renaturation has proceeded to 75° C. ([1]; added after the renaturation step has proceeded to 75° C.) | gentamicin binding to the 16S rRNA oligonucleotide in the absence of MgCl2 ([1]; buffer without MgCl2, FIG. 5) | gel shift when gentamicin is added at 90° C. or 85° C. ([1]; gentamicin present during entire denaturation/renaturation cycle, data not shown) | gentamicin concentration that must be added to produce a gel shift when MgCl2 is not present ([1]; no MgCl2 (TK buffer), FIG. 5) [mg/mL] | mobility shift of 16S rRNA A site oligonucleotide on addition of gentamicin ([1]; varying concentrations, TKM buffer, FIG. 3) | gel mobility shift of unrelated HIV TAR RNA oligonucleotide [2] | gel mobility shift of TAR RNA oligonucleotide in the presence of the peptide [3] | shift of TAR RNA peak in capillary electrophoresis [4]
1 | gentamicin | ≤ 10 | a mobility shift is not produced | weak | a gel shift is visualized | 1 | produces a mobility shift | does not result in a gel mobility shift | – | –
2 | YGRKKRRQRRRP [Tat47-58 peptide] | – | – | – | – | – | – | – | a clear shift is visible | a clear shift is visible
